Test results as given in PubChem BioAssay AID256 (DTP/NCI, 2004).
Several values for one entry are separate records, joined by “and”; a condition that tells them apart may be missing. Identical values can stand only once. Inconclusive results and toxic doses are left out. How the source made its calls: active means survival T/C of 150% or more; inactive means T/C below 125% in these data.

Test system: CD2F1 mice, L1210 leukemia ip, survival T/C
Assay: NCI In Vivo Anticancer Drug Screen. Data for tumor model L1210 Leukemia (intraperitoneal) in CD2F1 (CDF1) mice
Conditions: higher = longer survival
In short: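 Antitumor effect is scored in animals hosting a serially transplanted tumor. Values compare compound-dosed animals against vehicle-only controls as a simple quotient.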

[1] = endpoint: mean survival time, dose: 50.0 mg/kg/injection, schedule: Q01DX009 (ip), vehicle: saline with Tween-80
[2] = endpoint: mean survival time, dose: 100.0 mg/kg/injection, schedule: Q01DX001 (ip), vehicle: saline
[3] = endpoint: mean survival time, dose: 100.0 mg/kg/injection, schedule: Q01DX009 (ip), vehicle: saline with Tween-80
[4] = endpoint: mean survival time, dose: 200.0 mg/kg/injection, schedule: Q01DX001 (ip), vehicle: saline
[5] = endpoint: mean survival time, dose: 200.0 mg/kg/injection, schedule: Q01DX009 (ip), vehicle: saline with Tween-80
[6] = endpoint: mean survival time, dose: 400.0 mg/kg/injection, schedule: Q01DX001 (ip), vehicle: saline
[7] = endpoint: mean survival time, dose: 100.0 mg/kg/injection, schedule: Q04DX002 (ip), vehicle: saline with Tween-80
[8] = endpoint: mean survival time, dose: 200.0 mg/kg/injection, schedule: Q04DX002 (ip), vehicle: saline with Tween-80
[9] = endpoint: mean survival time, dose: 400.0 mg/kg/injection, schedule: Q04DX002 (ip), vehicle: saline with Tween-80
[10] = endpoint: mean survival time, dose: 100.0 mg/kg/injection, schedule: Q04DX003 (ip), vehicle: saline with Tween-80
[11] = endpoint: mean survival time, dose: 200.0 mg/kg/injection, schedule: Q04DX003 (ip), vehicle: saline with Tween-80
[12] = endpoint: mean survival time, dose: 400.0 mg/kg/injection, schedule: Q01DX009 (ip), vehicle: saline with Tween-80
[13] = endpoint: mean survival time, dose: 400.0 mg/kg/injection, schedule: Q04DX003 (ip), vehicle: saline with Tween-80
[14] = endpoint: mean survival time, dose: 25.0 mg/kg/injection, schedule: Q01DX001 (ip), vehicle: saline with Tween-80
[15] = endpoint: mean survival time, dose: 50.0 mg/kg/injection, schedule: Q01DX001 (ip), vehicle: saline with Tween-80
[16] = endpoint: mean survival time, dose: 100.0 mg/kg/injection, schedule: Q01DX001 (ip), vehicle: saline with Tween-80
[17] = endpoint: median survival time, dose: 12.5 mg/kg/injection, schedule: Q01DX005 (ip), vehicle: saline with Tween-80
[18] = endpoint: median survival time, dose: 25.0 mg/kg/injection, schedule: Q01DX005 (ip), vehicle: saline with Tween-80
[19] = endpoint: median survival time, dose: 50.0 mg/kg/injection, schedule: Q01DX005 (ip), vehicle: saline with Tween-80
[20] = endpoint: median survival time, dose: 100.0 mg/kg/injection, schedule: Q01DX005 (ip), vehicle: saline with Tween-80
[21] = endpoint: median survival time, dose: 200.0 mg/kg/injection, schedule: Q01DX005 (ip), vehicle: saline with Tween-80

Measured: T/C

CN1CCc2c3n(c4ccccc24)C(=O)CCC31 (stereo not given)
inactive: endpoint: mean survival time, dose: 6.25 mg/kg/injection, schedule: Q04DX003 (ip), vehicle: saline sonified 101 % of control | endpoint: mean survival time, dose: 12.5 mg/kg/injection, schedule: Q04DX003 (ip), vehicle: saline sonified 90 % of control | endpoint: mean survival time, dose: 25.0 mg/kg/injection, schedule: Q04DX003 (ip), vehicle: saline sonified 97 % of control

Cc1cc(=O)[nH]c2ccccc12
inactive: [1] 96 % of control | [2] 98 % of control | [3] 96 % of control | [4] 98 % of control | [5] 103 % of control | [6] 102 % of control

NNC(=S)NC1CC2C=CC1C2 (stereo not given)
inactive: endpoint: mean survival time, dose: 6.25 mg/kg/injection, schedule: Q04DX003 (ip), vehicle: saline with Tween-80 95 % of control | endpoint: mean survival time, dose: 12.5 mg/kg/injection, schedule: Q04DX003 (ip), vehicle: saline with Tween-80 95 % of control | endpoint: mean survival time, dose: 25.0 mg/kg/injection, schedule: Q04DX003 (ip), vehicle: saline with Tween-80 97 % of control

CC(=O)OCC1OC(OC(C)=O)C(NC(=O)NS(=O)(=O)c2ccc(C)cc2)C(OC(C)=O)C1OC(C)=O (stereo not given)
inactive: endpoint: mean survival time, dose: 12.5 mg/kg/injection, schedule: Q01DX009 (ip), vehicle: other 105 % of control | endpoint: mean survival time, dose: 25.0 mg/kg/injection, schedule: Q01DX009 (ip), vehicle: other 98 % of control | endpoint: mean survival time, dose: 50.0 mg/kg/injection, schedule: Q01DX009 (ip), vehicle: other 93 % of control | endpoint: mean survival time, dose: 100.0 mg/kg/injection, schedule: Q01DX009 (ip), vehicle: other 94 % of control | endpoint: mean survival time, dose: 200.0 mg/kg/injection, schedule: Q01DX009 (ip), vehicle: other 94 % of control

Cn1c(=O)c2c(nc(Br)n2CC(=O)CF)n(C)c1=O
inactive: endpoint: mean survival time, dose: 12.5 mg/kg/injection, schedule: Q01DX005 (ip), vehicle: distilled water + Tween-80 97 % of control and 100 % of control and 104 % of control | endpoint: mean survival time, dose: 25.0 mg/kg/injection, schedule: Q01DX005 (ip), vehicle: distilled water + Tween-80 97 % of control (2×) and 105 % of control | endpoint: mean survival time, dose: 50.0 mg/kg/injection, schedule: Q01DX005 (ip), vehicle: distilled water + Tween-80 94 % of control and 95 % of control | endpoint: mean survival time, dose: 100.0 mg/kg/injection, schedule: Q01DX005 (ip), vehicle: distilled water + Tween-80 97 % of control (2×) and 112 % of control | endpoint: mean survival time, dose: 200.0 mg/kg/injection, schedule: Q01DX005 (ip), vehicle: distilled water + Tween-80 93 % of control and 95 % of control

N[C@@H](Cc1ccc(O)c(O)c1)C(=O)O
inactive: endpoint: mean survival time, dose: 25.0 mg/kg/injection, schedule: Q01DX009 (ip), vehicle: saline 98 % of control | endpoint: mean survival time, dose: 50.0 mg/kg/injection, schedule: Q01DX009 (ip), vehicle: saline 97 % of control | endpoint: mean survival time, dose: 100.0 mg/kg/injection, schedule: Q01DX009 (ip), vehicle: saline 96 % of control | [7] 103 % of control | endpoint: mean survival time, dose: 200.0 mg/kg/injection, schedule: Q01DX009 (ip), vehicle: saline 103 % of control | [8] 95 % of control | endpoint: mean survival time, dose: 400.0 mg/kg/injection, schedule: Q01DX009 (ip), vehicle: saline 108 % of control | [9] 98 % of control | endpoint: mean survival time, dose: 800.0 mg/kg/injection, schedule: Q01DX009 (ip), vehicle: saline 119 % of control

O=C(Oc1cccc(O)c1)c1ccccc1
inactive: [3] 104 % of control | [10] 89 % of control | [5] 100 % of control | [11] 92 % of control | [12] 96 % of control | [13] 101 % of control

CN(C)/C=C1\Cc2ccccc2C1=O
inactive: [14] 95 % of control | [15] 92 % of control | [16] 90 % of control

NCc1ccc(-c2nc3ncnc(N)c3[nH]2)cc1
inactive: endpoint: mean survival time, dose: 3.13 mg/kg/injection, schedule: Q01DX001 (ip), vehicle: saline with Tween-80 108 % of control | endpoint: mean survival time, dose: 6.25 mg/kg/injection, schedule: Q01DX001 (ip), vehicle: saline with Tween-80 102 % of control | endpoint: mean survival time, dose: 12.5 mg/kg/injection, schedule: Q01DX001 (ip), vehicle: saline with Tween-80 100 % of control and 110 % of control | [14] 102 % of control | [15] 109 % of control | [16] 106 % of control and 110 % of control

c1ccc(Oc2cc[c]([Sn]([c]3ccccc3)([c]3ccccc3)[c]3ccc(Oc4ccccc4)cc3)cc2)cc1
inactive: [3] 106 % of control | [5] 100 % of control | [12] 98 % of control

CC1=C(/C=C/C(C)=C/C=C/C(C)=C/C(=O)Nc2ccc(O)cc2)C(C)(C)CCC1
inactive: [17] 98 % of control | [18] 101 % of control | [19] 98 % of control | [20] 92 % of control | [21] 96 % of control

Cc1cc2nc(N)n(C3OC(CO)C(O)C3O)c2cc1C (stereo not given)
inactive: endpoint: mean survival time, dose: 75.0 mg/kg/injection, schedule: Q01DX001 (ip), vehicle: saline 108 % of control | endpoint: mean survival time, dose: 150.0 mg/kg/injection, schedule: Q01DX001 (ip), vehicle: saline 105 % of control | endpoint: mean survival time, dose: 300.0 mg/kg/injection, schedule: Q01DX001 (ip), vehicle: saline 103 % of control

Nc1ncnc2nc(-c3ccc(Cc4ccccc4)cc3)[nH]c12
inactive: endpoint: mean survival time, dose: 0.63 mg/kg/injection, schedule: Q01DX009 (ip), vehicle: saline 96 % of control | endpoint: mean survival time, dose: 1.25 mg/kg/injection, schedule: Q01DX009 (ip), vehicle: saline 95 % of control | endpoint: mean survival time, dose: 2.5 mg/kg/injection, schedule: Q01DX009 (ip), vehicle: saline 95 % of control

O=C1NC(=O)C([P+](c2ccccc2)(c2ccccc2)c2ccccc2)C1=O (stereo not given)
inactive: [10] 102 % of control | [11] 102 % of control | [13] 98 % of control

O=c1c2cc([N+](=O)[O-])cc3c2-c2c4c(cc([N+](=O)[O-])cc14)c(O)c1cc([N+](=O)[O-])cc(c3=O)c21
inactive: [3] 103 % of control | [5] 117 % of control | [12] 113 % of control

CCOC(=O)Nc1nccs1
inactive: endpoint: mean survival time, dose: 25.0 mg/kg/injection, schedule: Q01DX009 (ip), vehicle: saline with Tween-80 98 % of control | [1] 100 % of control | [3] 98 % of control | endpoint: mean survival time, dose: 100.0 mg/kg/injection, schedule: Q04DX003 (ip), vehicle: Klucel (hydroxypropylcellulose) (HPC) 101 % of control | endpoint: mean survival time, dose: 200.0 mg/kg/injection, schedule: Q04DX003 (ip), vehicle: Klucel (hydroxypropylcellulose) (HPC) 97 % of control

CC1C=CC(C)S1 (stereo not given)
inactive: [2] 100 % of control | [7] 101 % of control | [4] 101 % of control | [8] 104 % of control | [6] 105 % of control | [9] 112 % of control

CSc1nc(NC2OCC(O)C(O)C2O)c(C(C)=O)c(=O)n1C (stereo not given)
inactive: [17] 97 % of control | [18] 98 % of control | [19] 96 % of control | [20] 89 % of control | [21] 94 % of control

CCOC(=O)/C=C(\C)N1CCCCC1
inactive: endpoint: mean survival time, dose: 100.0 mg/kg/injection, schedule: Q04DX003 (ip), vehicle: saline 92 % of control | endpoint: mean survival time, dose: 200.0 mg/kg/injection, schedule: Q04DX003 (ip), vehicle: saline 91 % of control | endpoint: mean survival time, dose: 400.0 mg/kg/injection, schedule: Q04DX003 (ip), vehicle: saline 94 % of control
